In ChEMBL document CHEMBL3885881, “DrugMatrix”:

Species on record: Rattus norvegicus
Experiment: DrugMatrix - Regimen: Daily Repeat
Type: toxicity, organism-based, Sprague-Dawley
Set-up: regimen Daily Repeat, gender Male, age 6-8 weeks
Settings: in vivo, po, route oral GAVAGE, vehicle 100 % WATER; for ABSOLUTE BASOPHIL / ABSOLUTE EOSINOPHIL / ABSOLUTE LYMPHOCYTE / ABSOLUTE MONOCYTE / ABSOLUTE SEGMENTED NEUTROPHIL / BASOPHIL / EOSINOPHIL / ERYTHROCYTE COUNT / HEMATOCRIT / HEMOGLOBIN / LEUKOCYTE COUNT / LYMPHOCYTE / MEAN CORPUSCULAR HEMOGLOBIN / MEAN CORPUSCULAR HEMOGLOBIN CONCENTRATION / MEAN CORPUSCULAR VOLUME / MONOCYTE / NEUTROPHIL / NUCLEATED RED BLOOD CELLS / PLATELET COUNT: tissue Blood; for ALANINE AMINOTRANSFERASE / ALBUMIN / ALKALINE PHOSPHATASE / ASPARTATE AMINOTRANSFERASE / BLOOD UREA NITROGEN / CARBON DIOXIDE / CHLORIDE / CHOLESTEROL / CREATINE PHOSPHOKINASE / CREATININE / GLUCOSE / LACTATE DEHYDROGENASE / LIPASE / PHOSPHORUS / POTASSIUM / SODIUM / TOTAL BILIRUBIN / TOTAL PROTEIN / URIC ACID: tissue Plasma
[1] = 0 mg/kg, 72 h, dose level Control, time 3 day
[2] = 0 mg/kg, 120 h, dose level Control, time 5 day
[3] = 150 mg/kg, 72 h, dose level Low, time 3 day
[4] = 150 mg/kg, 120 h, dose level Low, time 5 day

Cc1c(N(C)CS(=O)(=O)[O-])c(=O)n(-c2ccccc2)n1C.[Na+] [DIPYRONE SODIUM]
ABSOLUTE BASOPHIL [1]: 0 CELLS/uL
ABSOLUTE EOSINOPHIL [1]: 25 CELLS/uL
ABSOLUTE LYMPHOCYTE [1]: 14357 CELLS/uL
ABSOLUTE MONOCYTE [1]: 456.33 CELLS/uL
ABSOLUTE SEGMENTED NEUTROPHIL [1]: 1461.67 CELLS/uL
BASOPHIL [1]: 0%
EOSINOPHIL [1]: 0.17%
ERYTHROCYTE COUNT [1]: 5.85 x10E6/uL
HEMATOCRIT [1]: 37.62%
HEMOGLOBIN [1]: 13.87 G/DL
LEUKOCYTE COUNT [1]: 16.3 x10E3/uL
LYMPHOCYTE [1]: 88%
MEAN CORPUSCULAR HEMOGLOBIN [1]: 23.68 pg
MEAN CORPUSCULAR HEMOGLOBIN CONCENTRATION [1]: 36.88 G/DL
MEAN CORPUSCULAR VOLUME [1]: 64.23 fL
MONOCYTE [1]: 2.83%
NEUTROPHIL [1]: 9%
NUCLEATED RED BLOOD CELLS [1]: 0 /100WBC
PLATELET COUNT [1]: 1125.33 x10E3/uL
ALANINE AMINOTRANSFERASE [1]: 49.67 u/L
ALBUMIN [1]: 4.23 G/DL
ALKALINE PHOSPHATASE [1]: 400.83 u/L
ASPARTATE AMINOTRANSFERASE [1]: 89.17 u/L
BLOOD UREA NITROGEN [1]: 16 mg/dL
CARBON DIOXIDE [1]: 31.83 mmol/L
CHLORIDE [1]: 99 MEQ/L
CHOLESTEROL [1]: 76 mg/dL
CREATINE PHOSPHOKINASE [1]: 777.67 u/L
CREATININE [1]: 0.22 mg/dL
GLUCOSE [1]: 158.33 mg/dL
LACTATE DEHYDROGENASE [1]: 186.17 u/L
LIPASE [1]: 9.33 u/L
PHOSPHORUS [1]: 12.95 mg/dL
POTASSIUM [1]: 7.01 MEQ/L
SODIUM [1]: 141.53 MEQ/L
TOTAL BILIRUBIN [1]: 0.18 mg/dL
TOTAL PROTEIN [1]: 6.08 G/DL
URIC ACID [1]: 1.77 mg/dL
ABSOLUTE BASOPHIL [2]: 0 CELLS/uL
ABSOLUTE EOSINOPHIL [2]: 0 CELLS/uL
ABSOLUTE LYMPHOCYTE [2]: 8994.5 CELLS/uL
ABSOLUTE MONOCYTE [2]: 122.33 CELLS/uL
ABSOLUTE SEGMENTED NEUTROPHIL [2]: 666.5 CELLS/uL
BASOPHIL [2]: 0%
EOSINOPHIL [2]: 0%
ERYTHROCYTE COUNT [2]: 5.74 x10E6/uL
HEMATOCRIT [2]: 35.17%
HEMOGLOBIN [2]: 13.28 G/DL
LEUKOCYTE COUNT [2]: 9.78 x10E3/uL
LYMPHOCYTE [2]: 92.33%
MEAN CORPUSCULAR HEMOGLOBIN [2]: 23.15 pg
MEAN CORPUSCULAR HEMOGLOBIN CONCENTRATION [2]: 37.8 G/DL
MEAN CORPUSCULAR VOLUME [2]: 61.27 fL
MONOCYTE [2]: 1.33%
NEUTROPHIL [2]: 6.33%
NUCLEATED RED BLOOD CELLS [2]: 0 /100WBC
PLATELET COUNT [2]: 1117 x10E3/uL
ALANINE AMINOTRANSFERASE [2]: 47.83 u/L
ALBUMIN [2]: 4.33 G/DL
ALKALINE PHOSPHATASE [2]: 414.5 u/L
ASPARTATE AMINOTRANSFERASE [2]: 77.5 u/L
BLOOD UREA NITROGEN [2]: 17 mg/dL
CARBON DIOXIDE [2]: 32.33 mmol/L
CHLORIDE [2]: 99.33 MEQ/L
CHOLESTEROL [2]: 76.33 mg/dL
CREATINE PHOSPHOKINASE [2]: 363.67 u/L
CREATININE [2]: 0.25 mg/dL
GLUCOSE [2]: 173.5 mg/dL
LACTATE DEHYDROGENASE [2]: 129.33 u/L
LIPASE [2]: 9.17 u/L
PHOSPHORUS [2]: 11.52 mg/dL
POTASSIUM [2]: 5.73 MEQ/L
SODIUM [2]: 143.85 MEQ/L
TOTAL BILIRUBIN [2]: 0.2 mg/dL
TOTAL PROTEIN [2]: 6.43 G/DL
URIC ACID [2]: 0.97 mg/dL
ABSOLUTE BASOPHIL [3]: 0 CELLS/uL
ABSOLUTE EOSINOPHIL [3]: 55.67 CELLS/uL
ABSOLUTE LYMPHOCYTE [3]: 16817.67 CELLS/uL
ABSOLUTE MONOCYTE [3]: 567 CELLS/uL
ABSOLUTE SEGMENTED NEUTROPHIL [3]: 1026.33 CELLS/uL
BASOPHIL [3]: 0%
EOSINOPHIL [3]: 0.33%
ERYTHROCYTE COUNT [3]: 5.75 x10E6/uL
HEMATOCRIT [3]: 36.5%
HEMOGLOBIN [3]: 13.47 G/DL
LEUKOCYTE COUNT [3]: 18.47 x10E3/uL
LYMPHOCYTE [3]: 91%
MEAN CORPUSCULAR HEMOGLOBIN [3]: 23.47 pg
MEAN CORPUSCULAR HEMOGLOBIN CONCENTRATION [3]: 36.9 G/DL
MEAN CORPUSCULAR VOLUME [3]: 63.5 fL
MONOCYTE [3]: 3%
NEUTROPHIL [3]: 5.67%
NUCLEATED RED BLOOD CELLS [3]: 0 /100WBC
PLATELET COUNT [3]: 1215.67 x10E3/uL
ALANINE AMINOTRANSFERASE [3]: 44.67 u/L
ALBUMIN [3]: 4.4 G/DL
ALKALINE PHOSPHATASE [3]: 361 u/L
ASPARTATE AMINOTRANSFERASE [3]: 86 u/L
BLOOD UREA NITROGEN [3]: 16 mg/dL
CARBON DIOXIDE [3]: 33 mmol/L
CHLORIDE [3]: 100.33 MEQ/L
CHOLESTEROL [3]: 87 mg/dL
CREATINE PHOSPHOKINASE [3]: 700 u/L
CREATININE [3]: 0.19 mg/dL
GLUCOSE [3]: 142.33 mg/dL
LACTATE DEHYDROGENASE [3]: 212 u/L
LIPASE [3]: 9.33 u/L
PHOSPHORUS [3]: 13.33 mg/dL
POTASSIUM [3]: 6.6 MEQ/L
SODIUM [3]: 143.13 MEQ/L
TOTAL BILIRUBIN [3]: 0.2 mg/dL
TOTAL PROTEIN [3]: 6.2 G/DL
URIC ACID [3]: 1.67 mg/dL
ABSOLUTE BASOPHIL [4]: 0 CELLS/uL
ABSOLUTE EOSINOPHIL [4]: 0 CELLS/uL
ABSOLUTE LYMPHOCYTE [4]: 8863.67 CELLS/uL
ABSOLUTE MONOCYTE [4]: 61.67 CELLS/uL
ABSOLUTE SEGMENTED NEUTROPHIL [4]: 541.33 CELLS/uL
BASOPHIL [4]: 0%
EOSINOPHIL [4]: 0%
ERYTHROCYTE COUNT [4]: 5.85 x10E6/uL
HEMATOCRIT [4]: 36.3%
HEMOGLOBIN [4]: 13.67 G/DL
LEUKOCYTE COUNT [4]: 9.47 x10E3/uL
LYMPHOCYTE [4]: 93.33%
MEAN CORPUSCULAR HEMOGLOBIN [4]: 23.37 pg
MEAN CORPUSCULAR HEMOGLOBIN CONCENTRATION [4]: 37.63 G/DL
MEAN CORPUSCULAR VOLUME [4]: 62 fL
MONOCYTE [4]: 0.67%
NEUTROPHIL [4]: 6%
NUCLEATED RED BLOOD CELLS [4]: 0 /100WBC
PLATELET COUNT [4]: 1342 x10E3/uL
ALANINE AMINOTRANSFERASE [4]: 52.67 u/L
ALBUMIN [4]: 4.23 G/DL
ALKALINE PHOSPHATASE [4]: 379 u/L
ASPARTATE AMINOTRANSFERASE [4]: 72.33 u/L
BLOOD UREA NITROGEN [4]: 16.33 mg/dL
CARBON DIOXIDE [4]: 34.67 mmol/L
CHLORIDE [4]: 100.67 MEQ/L
CHOLESTEROL [4]: 67 mg/dL
CREATINE PHOSPHOKINASE [4]: 175.33 u/L
CREATININE [4]: 0.2 mg/dL
GLUCOSE [4]: 135 mg/dL
LACTATE DEHYDROGENASE [4]: 123 u/L
LIPASE [4]: 8.67 u/L
PHOSPHORUS [4]: 12.43 mg/dL
POTASSIUM [4]: 6.37 MEQ/L
SODIUM [4]: 145.67 MEQ/L
TOTAL BILIRUBIN [4]: 0.17 mg/dL
TOTAL PROTEIN [4]: 6.17 G/DL
URIC ACID [4]: 1.3 mg/dL
